Test results published in patent US12545672B2, “Antibiotic compounds, methods of manufacturing the same, pharmaceutical compositions containing the same and uses thereof” (Debiopharm International S.A., priority 2018, dated 2026).
Like-named read-outs stand apart in the source and are kept apart here.

Experiments:
[1] = molecular target: Neisseria gonorrhoeae FabI (Neisseria gonorrhoeae, UniProt A0ACH0F547); assay: Neisseria gonorrhoeae FabI inhibition assay (NADH consumption)
Neisseria gonorrhoeae = assay: MIC50 by CLSI agar dilution on a panel of N. gonorrhoeae clinical isolates; format: cell-based; conditions: Neisseria gonorrhoeae
Description: MIC50: MICs were determined in accordance with the appropriate Clinical and Laboratory Standards Institute (CLSI) methodology by the agar dilution susceptbility testing method in GC agar base.

[2] = agar dilution, GC agar base, minimum of 15 clinical isolates, read-out: MIC50

Neisseria gonorrhoeae FabI, sequence (A0ACH0F547 1-261): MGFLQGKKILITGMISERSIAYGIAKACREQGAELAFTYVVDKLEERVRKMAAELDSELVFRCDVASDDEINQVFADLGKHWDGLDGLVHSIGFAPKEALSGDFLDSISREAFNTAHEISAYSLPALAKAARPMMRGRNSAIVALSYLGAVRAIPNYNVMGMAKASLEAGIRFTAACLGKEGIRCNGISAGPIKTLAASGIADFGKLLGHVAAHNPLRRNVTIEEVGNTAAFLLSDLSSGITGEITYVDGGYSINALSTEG

Compound | IC50 [1] [nM] | MIC50 (Neisseria gonorrhoeae; [2]) [µg/mL] | MIC50 (Neisseria gonorrhoeae) [µg/mL]
C[C@@]1(O)CNc2cc(/C=C/C(=O)N3C[C@H]4CC(c5ccc(Oc6ccccc6)cc5)=C[C@H]4C3)cnc2NC1=O [Compound 159, (R)-3-hydroxy-3-methyl-8-((E)-3-oxo-3-((3aS,6aR)-5-(4-phenoxyphenyl)-3,3a,4,6a-tetrahydrocyclopenta[c]pyrrol-2(1H)-yl)prop-1-en-1-yl)-1,2,3,5-tetrahydro-4H-pyrido[2,3-b][1,4]diazepin-4-one] | < 10 | < 1 | 
Cc1oc2c(Oc3ccc4c(c3)OCC4)cccc2c1CN(C)C(=O)/C=C/c1cnc2c(c1)NC[C@@](C)(O)C(=O)N2 [Compound 182, (R,E)-N-((7-((2,3-dihydrobenzofuran-6-yl)oxy)-2-methylbenzofuran-3-yl)methyl)-3-(3-hydroxy-3-methyl-4-oxo-2,3,4,5-tetrahydro-1H-pyrido[2,3-b][1,4]diazepin-8-yl)-N-methylacrylamide] | < 10 | < 1 | 
Cc1c(CN(C)C(=O)/C=C/c2cnc3c(c2)NC(C)(C)C(=O)N3)oc2ccccc12 [Compound 19, (E)-3-(2,2-dimethyl-3-oxo-1,2,3,4-tetrahydropyrido[2,3-b]pyrazin-7-yl)-N-methyl-N-((3-methylbenzofuran-2-yl)methyl)acrylamide] | < 10 | < 1 | 
Cc1oc2ccccc2c1CN(C)C(=O)/C=C/c1cnc2c(c1)N[C@H](C)[C@H](O)C(=O)N2 (single isomer, unassigned) [Compound 151] | < 10 | < 1 | 
O=C1CCNc2cc(/C=C/C(=O)N3C[C@H]4CC(c5ccc(Oc6ncccn6)cc5)=C[C@H]4C3)cnc2N1 [Compound 60, 8-((E)-3-Oxo-3-((3aS,6aR)-5-(4-(pyrimidin-2-yloxy)phenyl)-3,3a,4,6a-tetrahydrocyclopenta[c]pyrrol-2(1H)-yl)prop-1-en-1-yl)-1,2,3,5-tetrahydro-4H-pyrido[2,3-b][1,4]diazepin-4-one] | < 10 | < 1 | 
N#Cc1cccc(Oc2ccc(C3=C[C@H]4CN(C(=O)/C=C/c5cnc6c(c5)NCCC(=O)N6)C[C@H]4C3)cc2)c1 [Compound 123, 3-(4-((3rS,6rR)-2-((E)-3-(4-Oxo-2,3,4,5-tetrahydro-1H-pyrido[2,3-b][1,4]diazepin-8-yl)acryloyl)-1,2,3,3r,4,6r-hexahydrocyclopenta[c]pyrrol-5-yl)phenoxy)benzonitrile] | < 10 | < 1 | 
Cc1oc2c(N)cccc2c1CN(C)C(=O)/C=C/c1cnc2c(c1)NC[C@@](C)(O)C(=O)N2 [Compound 167, (R,E)-N-((7-amino-2-methylbenzofuran-3-yl)methyl)-3-(3-hydroxy-3-methyl-4-oxo-2,3,4,5-tetrahydro-1H-pyrido[2,3-b][1,4]diazepin-8-yl)-N-methylacrylamide] | < 10 | < 1 | 
Cc1oc2ccccc2c1CN(C)C(=O)/C=C/c1cnc2c(c1)NCCC(=O)N2 [Compound 170, (E)-N-Methyl-N-((2-methylbenzofuran-3-yl)methyl)-3-(4-oxo-2,3,4,5-tetrahydro-1H-pyrido[2,3-b][1,4]diazepin-8-yl)acrylamide] | < 10 | < 1 | 
Cc1c(CN(C)C(=O)/C=C/c2cnc3c(c2)NCC(CO)C(=O)N3)oc2ccccc12 (stereo not drawn) [Compound 270, (E)-3-(3-(hydroxymethyl)-4-oxo-2,3,4,5-tetrahydro-1H-pyrido[2,3-b][1,4]diazepin-8-yl)-N-methyl-N-((3-methylbenzofuran-2-yl)methyl)acrylamide] | < 10 | < 1 | 
Cc1oc2c(Oc3ccc(C#N)cc3)cccc2c1CN(C)C(=O)/C=C/c1cnc2c(c1)NC[C@@](C)(O)C(=O)N2 [Compound 152, (R,E)-N-((7-(4-cyanophenoxy)-2-methylbenzofuran-3-yl)methyl)-3-(3-hydroxy-3-methyl-4-oxo-2,3,4,5-tetrahydro-1H-pyrido[2,3-b][1,4]diazepin-8-yl)-N-methylacrylamide] | < 10 |  | < 1
Cc1c(CN(C)C(=O)/C=C/c2cnc3c(c2)N[C@H](C)[C@@](C)(O)C(=O)N3)oc2ccccc12 [Compound 207, (E)-3-(3-hydroxy-2,3-dimethyl-4-oxo-2,3,4,5-tetrahydro-1H-pyrido[2,3-b][1,4]diazepin-8-yl)-N-methyl-N-((3-methylbenzofuran-2-yl)methyl)acrylamide] |  | < 1 | 
Cc1c(CN(C)C(=O)/C=C/c2cnc3c(c2)NCC(C)(CO)C(=O)N3)oc2ccccc12 (stereo not drawn) [Compound 31, (E)-3-(3-(hydroxymethyl)-3-methyl-4-oxo-2,3,4,5-tetrahydro-1H-pyrido[2,3-b][1,4]diazepin-8-yl)-N-methyl-N-((3-methylbenzofuran-2-yl)methyl)acrylamide] | < 10 | < 1 | 
Cc1c(CN(C)C(=O)/C=C/c2cnc3c(c2)NCC(=O)N3)oc2ccccc12 [Compound 10, (E)-N-methyl-N-((3-methylbenzofuran-2-yl)methyl)-3-(3-oxo-1,2,3,4-tetrahydropyrido[2,3-b]pyrazin-7-yl)acrylamide] | < 10 | < 1 | 
Cc1c(CN(C)C(=O)/C=C/c2cnc3c(c2)N[C@](C)(CO)C(=O)N3)oc2ccccc12 (single isomer, unassigned) [Compound 209] | < 10 | < 1 | 
Cc1c(CN(C)C(=O)/C=C/c2cnc3c(c2)C[C@@](C)(O)C(=O)N3)oc2ccccc12 (single isomer, unassigned) [Compound 247] | < 10 |  | < 1
Cc1c(CN(C)C(=O)/C=C/c2cnc3c(c2)CCCC(=O)N3)oc2cccc(N)c12 [Compound 5, (E)-N-((4-amino-3-methylbenzofuran-2-yl)methyl)-N-methyl-3-(8-oxo-6,7,8,9-tetrahydro-5H-pyrido[2,3-b]azepin-3-yl)acrylamide] | < 10 | < 1 | 
Cc1oc2ccccc2c1CN(C)C(=O)/C=C/c1cnc2c(c1)NC[C@](C)(CO)C(=O)N2 (single isomer, unassigned) [Compound 41] | < 10 | < 1 | 
Cc1c(CN(C)C(=O)/C=C/c2cnc3c(c2)N[C@H](C)[C@H](O)C(=O)N3)oc2ccccc12 (single isomer, unassigned) [Compound 150] | < 10 | < 1 | 
Cc1c(CN(C)C(=O)/C=C/c2cnc3c(c2)C=C[C@@](C)(O)C(=O)N3)oc2ccccc12 (single isomer, unassigned) [Compound 260] | < 10 | < 1 | 
Cc1c(CN(C)C(=O)/C=C/c2cnc3c(c2)NC[C@](C)(CO)C(=O)N3)oc2ccccc12 [Compound 33, (R,E)-3-(3-(hydroxymethyl)-3-methyl-4-oxo-2,3,4,5-tetrahydro-1H-pyrido[2,3-b][1,4]diazepin-8-yl)-N-methyl-N-((3-methylbenzofuran-2-yl)methyl)acrylamide] | < 10 | < 1 | 
Cc1c(CN(C)C(=O)/C=C/c2cnc3c(c2)NCCC(=O)N3)oc2cccc(N)c12 [Compound 7, (E)-N-((4-amino-3-methylbenzofuran-2-yl)methyl)-N-methyl-3-(4-oxo-2,3,4,5-tetrahydro-1H-pyrido[2,3-b][1,4]diazepin-8-yl)acrylamide] | < 10 | < 1 | 
Cc1oc2ccccc2c1CN(C)C(=O)/C=C/c1cnc2c(c1)NC[C@@](C)(CO)C(=O)N2 (single isomer, unassigned) [Compound 40] | < 10 | < 1 | 
COc1cccc(Oc2cccc3c(CN(C)C(=O)/C=C/c4cnc5c(c4)CCCC(=O)N5)c(C)oc23)c1 [Compound 186, (E)-N-((7-(3-methoxyphenoxy)-2-methylbenzofuran-3-yl)methyl)-N-methyl-3-(8-oxo-6,7,8,9-tetrahydro-5H-pyrido[2,3-b]azepin-3-yl)acrylamide] | < 10 | < 1 | 
Cc1oc2c(N)cccc2c1CN(C)C(=O)/C=C/c1cnc2c(c1)NCC(C)(C)C(=O)N2 [Compound 109, (E)-N-((7-Amino-2-methylbenzofuran-3-yl)methyl)-3-(3,3-dimethyl-4-oxo-2,3,4,5-tetrahydro-1H-pyrido[2,3-b][1,4]diazepin-8-yl)-N-methylacrylamide] | < 10 | < 1 | 
Cc1c(CN(C)C(=O)/C=C/c2cnc3c(c2)NC[C@@](C)(CO)C(=O)N3)oc2ccccc12 [Compound 32, (S,E)-3-(3-(hydroxymethyl)-3-methyl-4-oxo-2,3,4,5-tetrahydro-1H-pyrido[2,3-b][1,4]diazepin-8-yl)-N-methyl-N-((3-methylbenzofuran-2-yl)methyl)acrylamide] | < 10 | < 1 | 
Cc1c(CN(C)C(=O)/C=C/c2cnc3c(c2)N[C@H](C)[C@@](C)(O)C(=O)N3)oc2ccccc12 (racemic) [Compound 207, (E)-3-(3-hydroxy-2,3-dimethyl-4-oxo-2,3,4,5-tetrahydro-1H-pyrido[2,3-b][1,4]diazepin-8-yl)-N-methyl-N-((3-methylbenzofuran-2-yl)methyl)acrylamide] | < 10 |  | 
N#Cc1ccc(Oc2ccc(C3=C[C@@H]4CN(C(=O)/C=C/c5cnc6c(c5)NCCC(=O)N6)C[C@@H]4C3)cc2)cc1 (stereo in doubt) [Compound 198, 4-(4-((3aR,6aS)-2-((E)-3-(4-oxo-2,3,4,5-tetrahydro-1H-pyrido[2,3-b][1,4]diazepin-8-yl)acryloyl)-1,2,3,3a,4,6a-hexahydrocyclopenta[c]pyrrol-5-yl)phenoxy)benzonitrile] | < 10 | < 1 | 
Cc1c(CN(C)C(=O)/C=C/c2cnc3c(c2)NC[C@H](O)C(=O)N3)oc2ccccc12 [Compound 230, (S,E)-3-(3-Hydroxy-4-oxo-2,3,4,5-tetrahydro-1H-pyrido[2,3-b][1,4]diazepin-8-yl)-N-methyl-N-((3-methylbenzofuran-2-yl)methyl)acrylamide] | < 10 | < 1 | 
